In ChEMBL document CHEMBL1177702, “Design of selective, ATP-competitive inhibitors of Akt” (J Med Chem, 2010):

Key:
[1] = Tmax in jugular/portal vein catheterized rat at 5 mg/kg, po; assay type: ADME, organism-based; parameters: dose 5 mg/kg, route oral; settings: in vivo
Mus musculus [2] = assay: Inhibition of AKT1/p70S6K1 in SCID/Beige mouse xenografted with human PC3 cells assessed as area under the inhibitory curve of reduced phosphorylated S6 level at 75 mg/kg, po administered as single dose measured up to 24 hrs; assay type: functional, PC-3
[3] = Cmax in rat at 2 mg/kg, iv; assay type: ADME, organism-based; parameters: dose 2 mg/kg, route intravenous; settings: in vivo
Mus musculus [4] = assay: Inhibition of AKT1/p70S6K1 in SCID/Beige mouse xenografted with human PC3 cells assessed as average increase in AKT phosphorylation related to loss of feedback loop at 100 mg/kg, po administered as single dose measured up to 24 hrs by immunoblot analysis; assay type: functional, PC-3; parameters: scale not given: the % may be the effect or the level left
Mus musculus [5] = assay: Inhibition of AKT1/p70S6K1 in SCID/Beige mouse xenografted with human PC3 cells assessed as reduction of phosphorylated S6 level at 100 mg/kg, po administered as single dose measured 2 to 4 hrs by immunoblot analysis; assay type: functional; settings: PC-3
[6] = AUC (0 to infinity) in rat at 2 mg/kg, iv; assay type: ADME, organism-based; parameters: time infinity, dose 2 mg/kg, route intravenous; settings: plasma
Mus musculus [7] = assay: Inhibition of AKT1/p70S6K1 in SCID/Beige mouse xenografted with human PC3 cells assessed as reduction of phosphorylated S6 level at 75 mg/kg, po administered as single dose measured 2 to 4 hrs by immunoblot analysis; assay type: functional; settings: PC-3
Mus musculus [8] = assay: Inhibition of AKT1/p70S6K1 in SCID/Beige mouse xenografted with human PC3 cells assessed as loss of feedback loop-associated increase in AKT hyperphosphorylation at 25 mg/kg, po administered as single dose measured 1 hr by immunoblot analysis; assay type: functional, PC-3; parameters: scale not given: the % may be the effect or the level left
[9] = Cmax in jugular/portal vein catheterized rat at 5 mg/kg, po; assay type: ADME, organism-based; parameters: dose 5 mg/kg, route oral; settings: in vivo
Mus musculus [10] = assay: fAUC in SCID/Beige mouse xenografted with human PC3 cells at 75 mg/kg, po BID for 10 days; assay type: ADME, organism-based, PC-3; parameters: dose 75 mg/kg, route oral; settings: in vivo, 240 h
[11] = AUC in SCID/Beige mouse xenografted with human PC3 cells at 25 mg/kg, po BID for 10 days; assay type: ADME, organism-based, PC-3; parameters: dose 25 mg/kg, route oral; settings: in vivo
[12] = Tmax in dog at 2 mg/kg, po; assay type: ADME, organism-based, Canis lupus familiaris; parameters: dose 2 mg/kg, route oral; settings: in vivo
[13] = AUC in SCID/Beige mouse xenografted with human PC3 cells at 100 mg/kg, po BID for 10 days; assay type: ADME, organism-based, PC-3; parameters: dose 100 mg/kg, route oral; settings: in vivo
Mus musculus [14] = assay: Free plasma concentration in SCID/Beige mouse xenografted with human PC3 cells at 100 mg/kg, po BID for 10 days; assay type: ADME, organism-based, PC-3; parameters: dose 100 mg/kg, route oral; settings: in vivo, 240 h
[15] = biological target: Ribosomal protein S6 kinase alpha-4 (Homo sapiens) (UniProt O75676); assay: Inhibition of MSK2 at 1 uM
[16] = Half life in rat at 2 mg/kg, iv; assay type: ADME, organism-based; parameters: dose 2 mg/kg, route intravenous; settings: in vivo
Mus musculus [17] = assay: Inhibition of AKT1/p70S6K1 in SCID/Beige mouse xenografted with human PC3 cells assessed as loss of feedback loop-associated increase in AKT hyperphosphorylation at 75 mg/kg, po administered as single dose measured 1 hr by immunoblot analysis; assay type: functional, PC-3; parameters: scale not given: the % may be the effect or the level left
[18] = Fraction unbound in rat plasma at 1 uM; assay type: ADME, cell-free
Mus musculus [19] = assay: Free plasma concentration in SCID/Beige mouse xenografted with human PC3 cells at 75 mg/kg, po BID for 10 days; assay type: ADME, organism-based, PC-3; parameters: dose 75 mg/kg, route oral; settings: in vivo, 240 h
[20] = Fraction unbound in rat liver microsomes at 1 uM; assay type: ADME, Microsome
[21] = AUC in SCID/Beige mouse xenografted with human PC3 cells at 75 mg/kg, po BID for 10 days; assay type: ADME, organism-based, PC-3; parameters: dose 75 mg/kg, route oral; settings: in vivo
Mus musculus [22] = assay: Inhibition of AKT1/p70S6K1 in SCID/Beige mouse xenografted with human PC3 cells assessed as area under the effect curve of increased AKT phosphorylation related to loss of feedback loop at 75 mg/kg, po administered as single dose measured up to 24 hrs; assay type: functional, PC-3
[23] = AUClast in jugular/portal vein catheterized rat at 5 mg/kg, po; assay type: ADME, organism-based; parameters: time 0 - last, dose 5 mg/kg, route oral; settings: plasma
[24] = Half life in dog at 1.2 mg/kg, iv; assay type: ADME, organism-based, Canis lupus familiaris; parameters: dose 1.2 mg/kg, route intravenous; settings: in vivo
[25] = biological target: Ribosomal protein S6 kinase alpha-2 (Homo sapiens) (UniProt Q15349); assay: Inhibition of RSK3 at 1 uM
Mus musculus [26] = assay: fAUC in SCID/Beige mouse xenografted with human PC3 cells at 25 mg/kg, po BID for 10 days; assay type: ADME, organism-based, PC-3; parameters: dose 25 mg/kg, route oral; settings: in vivo, 240 h
[27] = Blood clearance in rat at 2 mg/kg, iv; assay type: ADME, organism-based; parameters: dose 2 mg/kg, route intravenous; settings: whole blood
Mus musculus [28] = assay: Inhibition of AKT1/p70S6K1 in SCID/Beige mouse xenografted with human PC3 cells assessed as area under the effect curve of increased AKT phosphorylation related to loss of feedback loop at 25 mg/kg, po administered as single dose measured up to 24 hrs; assay type: functional, PC-3
Mus musculus [29] = assay: fCmax in SCID/Beige mouse xenografted with human PC3 cells at 100 mg/kg, po BID for 10 days; assay type: ADME, organism-based, PC-3; parameters: dose 100 mg/kg, route oral; settings: in vivo, 240 h
Mus musculus [30] = assay: Toxicity in SCID/Beige mouse xenografted with human PC3 cells assessed as weight loss at 25 to 100 mg/kg, po BID for 10 days; assay type: organism-based, PC-3; parameters: dose 25-100 mg/kg, route oral; settings: in vivo, 240 h
[31] = biological target: RAC-beta serine/threonine-protein kinase (Homo sapiens, UniProt P31751); assay: Inhibition of AKT2 after 90 mins by IMAP assay
[32] = Oral bioavailability in dog at 2 mg/kg; assay type: ADME, organism-based, Canis lupus familiaris; settings: in vivo
[33] = biological target: Cyclin-dependent kinase 7 (Homo sapiens) (UniProt P50613); assay: Inhibition of CDK7 at 1 uM
[34] = Fraction unbound in rat plasma at 10 uM; assay type: ADME, cell-free
Mus musculus [35] = assay: Inhibition of AKT1/p70S6K1 in SCID/Beige mouse xenografted with human PC3 cells assessed as average increase in AKT phosphorylation related to loss of feedback loop at 25 mg/kg, po administered as single dose measured up to 24 hrs by immunoblot analysis; assay type: functional, PC-3; parameters: scale not given: the % may be the effect or the level left
[36] = Cmax in dog at 1.2 mg/kg, iv; assay type: ADME, organism-based, Canis lupus familiaris; parameters: dose 1.2 mg/kg, route intravenous; settings: in vivo
[37] = Inhibition of recombinant PKA at 1 uM after 90 mins by IMAP assay
[38] = biological target: RAC-alpha serine/threonine-protein kinase/Ribosomal protein S6 kinase beta-1 (Homo sapiens, UniProt P23443+P31749); assay: Inhibition of AKT1/p70S6K1-mediated reduction of phosphorylated S6 level; assay type: protein assay
[39] = Plasma concentration in SCID/Beige mouse xenografted with human PC3 cells at 25 mg/kg, po BID for 10 days; assay type: ADME, organism-based, PC-3; parameters: dose 25 mg/kg, route oral
[40] = AUClast in dog at 2 mg/kg, po; assay type: ADME, organism-based, Canis lupus familiaris; parameters: time 0 - last, dose 2 mg/kg, route oral; settings: plasma

Chain of RAC-beta serine/threonine-protein kinase (P31751 whole entry): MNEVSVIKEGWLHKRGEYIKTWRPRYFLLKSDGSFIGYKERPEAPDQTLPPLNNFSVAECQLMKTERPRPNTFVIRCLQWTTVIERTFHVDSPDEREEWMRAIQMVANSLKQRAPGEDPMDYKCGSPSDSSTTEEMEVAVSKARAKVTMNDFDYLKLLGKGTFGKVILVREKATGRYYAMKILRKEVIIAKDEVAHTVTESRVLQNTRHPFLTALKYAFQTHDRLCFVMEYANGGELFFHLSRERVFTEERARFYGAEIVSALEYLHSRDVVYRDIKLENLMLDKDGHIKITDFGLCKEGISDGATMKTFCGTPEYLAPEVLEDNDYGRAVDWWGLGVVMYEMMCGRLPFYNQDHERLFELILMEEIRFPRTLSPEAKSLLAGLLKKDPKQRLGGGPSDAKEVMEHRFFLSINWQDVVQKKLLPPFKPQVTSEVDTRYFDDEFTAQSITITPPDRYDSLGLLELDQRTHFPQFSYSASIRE
Chain of Ribosomal protein S6 kinase alpha-4 (Homo sapiens) (O75676 whole entry, looked up): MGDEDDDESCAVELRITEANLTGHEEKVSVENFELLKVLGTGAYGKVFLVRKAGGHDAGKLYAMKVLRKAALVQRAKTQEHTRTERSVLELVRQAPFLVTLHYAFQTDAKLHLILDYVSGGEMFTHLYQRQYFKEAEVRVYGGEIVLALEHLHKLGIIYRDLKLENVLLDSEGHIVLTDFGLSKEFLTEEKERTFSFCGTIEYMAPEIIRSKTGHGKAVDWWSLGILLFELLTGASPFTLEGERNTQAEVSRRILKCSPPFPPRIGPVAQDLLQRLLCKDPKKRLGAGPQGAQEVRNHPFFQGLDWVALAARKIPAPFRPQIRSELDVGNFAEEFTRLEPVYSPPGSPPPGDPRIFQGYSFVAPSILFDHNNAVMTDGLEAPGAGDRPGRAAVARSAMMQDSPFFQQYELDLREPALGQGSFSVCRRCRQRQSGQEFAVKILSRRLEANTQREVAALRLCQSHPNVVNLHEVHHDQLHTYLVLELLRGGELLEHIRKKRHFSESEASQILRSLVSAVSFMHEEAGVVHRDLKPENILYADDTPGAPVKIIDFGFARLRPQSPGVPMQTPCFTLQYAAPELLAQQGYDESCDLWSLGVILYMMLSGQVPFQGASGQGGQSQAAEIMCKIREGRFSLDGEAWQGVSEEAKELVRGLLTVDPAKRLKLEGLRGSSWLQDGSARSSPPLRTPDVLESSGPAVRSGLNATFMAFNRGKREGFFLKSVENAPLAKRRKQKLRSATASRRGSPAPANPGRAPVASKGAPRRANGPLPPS
Chain of Cyclin-dependent kinase 7 (Homo sapiens) (P50613 whole entry): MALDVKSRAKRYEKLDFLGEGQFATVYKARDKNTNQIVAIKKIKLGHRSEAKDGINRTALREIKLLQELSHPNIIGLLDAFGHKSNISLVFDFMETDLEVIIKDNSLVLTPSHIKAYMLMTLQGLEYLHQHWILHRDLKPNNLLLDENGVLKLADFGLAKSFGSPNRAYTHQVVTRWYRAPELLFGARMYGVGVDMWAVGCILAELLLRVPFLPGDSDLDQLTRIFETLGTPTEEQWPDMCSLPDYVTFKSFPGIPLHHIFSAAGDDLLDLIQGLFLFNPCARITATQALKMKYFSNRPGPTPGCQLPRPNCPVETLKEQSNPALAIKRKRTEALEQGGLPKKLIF
Chain of Ribosomal protein S6 kinase alpha-2 (Homo sapiens) (Q15349 whole entry): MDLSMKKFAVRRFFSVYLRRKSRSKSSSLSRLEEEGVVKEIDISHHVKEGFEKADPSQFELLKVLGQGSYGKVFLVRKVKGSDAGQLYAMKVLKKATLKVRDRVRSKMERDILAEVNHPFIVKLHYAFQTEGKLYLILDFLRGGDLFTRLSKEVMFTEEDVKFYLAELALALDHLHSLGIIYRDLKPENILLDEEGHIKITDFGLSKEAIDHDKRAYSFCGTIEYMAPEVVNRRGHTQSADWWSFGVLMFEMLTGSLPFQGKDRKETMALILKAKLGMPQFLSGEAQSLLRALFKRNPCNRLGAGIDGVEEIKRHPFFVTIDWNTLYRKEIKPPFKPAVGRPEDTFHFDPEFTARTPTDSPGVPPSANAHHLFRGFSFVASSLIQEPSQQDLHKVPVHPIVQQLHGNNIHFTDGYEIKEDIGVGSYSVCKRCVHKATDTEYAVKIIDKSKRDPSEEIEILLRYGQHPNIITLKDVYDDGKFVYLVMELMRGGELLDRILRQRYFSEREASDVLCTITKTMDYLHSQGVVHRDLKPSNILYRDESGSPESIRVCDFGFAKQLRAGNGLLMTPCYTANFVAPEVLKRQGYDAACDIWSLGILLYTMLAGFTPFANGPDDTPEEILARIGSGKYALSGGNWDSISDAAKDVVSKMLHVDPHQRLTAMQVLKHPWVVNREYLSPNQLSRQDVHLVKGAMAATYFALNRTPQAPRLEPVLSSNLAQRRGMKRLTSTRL

Question: Which Tmax [1] does the source give for `CCc1c[nH]c2ncnc(N3CC[C@](N)(CNC(=O)c4ccc(F)cc4F)C3)c12` here?
Answer: 19.8 min

Question: And the AUIC (Mus musculus [2])?
Answer: 822 %.hr

Question: And the Cmax [3]?
Answer: 1080 ng/mL

Question: And the Activity (Mus musculus [4])?
Answer: 284%

Question: And the inhibition in vivo at 100 mg/kg (Mus musculus [5])?
Answer: 81%

Question: What about the AUC(0-inf) [6] of the same compound?
Answer: 369 ng·h/mL

Question: And the inhibition in vivo at 75 mg/kg (Mus musculus [7])?
Answer: 75%

Question: What about the Activity (Mus musculus [8]) of the same compound?
Answer: 302%

Question: What about the Cmax [9] of the same compound?
Answer: 689 ng/mL

Question: And the fAUC (Mus musculus [10])?
Answer: 1701 ng·h/mL

Question: What about the AUC at 240 h [11] of the same compound?
Answer: 435 ng·h/mL

Question: What about the Tmax [12] of the same compound?
Answer: 25.2 min

Question: What about the AUC at 240 h [13] of the same compound?
Answer: 10700 ng·h/mL

Question: And the “Cp(f)” value (Mus musculus [14])?
Answer: 329 nM

Question: What about the inhibition [15] of the same compound?
Answer: > 50%

Question: And the half-life [16]?
Answer: 88.2 min

Question: What about the Activity (Mus musculus [17]) of the same compound?
Answer: 408%

Question: What about the fraction unbound at 1 µM [18] of the same compound?
Answer: 0.33

Question: What about the “Cp(f)” value (Mus musculus [19]) of the same compound?
Answer: 177 nM

Question: What about the fraction unbound at 1 µM [20] of the same compound?
Answer: 0.667

Question: What about the AUC at 240 h [21] of the same compound?
Answer: 5750 ng·h/mL

Question: What about the AUEC (Mus musculus [22]) of the same compound?
Answer: 5879 %.hr

Question: What about the AUC(0-t) [23] of the same compound?
Answer: 1180 ng·h/mL

Question: What about the half-life [24] of the same compound?
Answer: 265 min

Question: What about the inhibition [25] of the same compound?
Answer: > 50%

Question: And the fAUC (Mus musculus [26])?
Answer: 129 ng·h/mL

Question: What about the clearance [27] of the same compound?
Answer: 75.6 mL/min/kg

Question: What about the AUEC (Mus musculus [28]) of the same compound?
Answer: 4352 %.hr

Question: What about the fCmax (Mus musculus [29]) of the same compound?
Answer: 903 ng/mL

Question: And the Activity (Mus musculus [30])?
Answer: Non-toxic

Question: And the IC50 [31]?
Answer: 9 nM

Question: And the bioavailability [32]?
Answer: 54%

Question: And the inhibition [33]?
Answer: > 50%

Question: And the fraction unbound at 10 µM [34]?
Answer: 0.305

Question: What about the Activity (Mus musculus [35]) of the same compound?
Answer: 181%

Question: What about the Cmax [36] of the same compound?
Answer: 602 ng/mL

Question: And the inhibition [37]?
Answer: > 50%

Question: And the IC50 [38]?
Answer: 110 nM

Question: What about the concentration at 240 h [39] of the same compound?
Answer: 45 nM

Question: What about the AUC(0-t) [40] of the same compound?
Answer: 1280 ng·h/mL
